The results in this text go back to patent US20260069601A1, “PHARMACEUTICAL COMPOSITION FOR INHALATION FOR PREVENTING OR TREATING RESPIRATORY DISEASE” (LEXENPHARM (SUZHOU) LIMITED, priority 2022, published 2026).

SMILES strings stand for the structures.

This data set can be described thus: Stability test of indacaterol maleate-glycopyrronium bromide compositions at different pH (Example 7). It is filed as physicochemical. The note with it: 4 weeks at 60° C. As to the method: The soft mist solutions of indatarol indacaterol maleate and glycopyrronium bromide at different pH were prepared as follows. Six 0.02 mM citric acid solution each 500 mL were prepared. pH was adjusted to 2.5, 3.0, 3.5, 4.0, 4.5, and 5.0 with 1 M (mol/L) of sodium hydroxide solution. Indacaterol maleate and glycopyrronium bromide were added. In order to improve the dissolution of indacaterol, all the drug solutions were ultrasonicated in a water bath at 30° C. for 20 min until no visible particles were found.
The drug solutions were placed in glass bottles and stability test was performed to determine the contents of indacaterol and glycopyrronium bromide and total impurities in the samples at the initial state and after 4 weeks at 60° C.

Consider `CCc1cc2c(cc1CC)CC(NC[C@H](O)c1ccc(O)c3[nH]c(=O)ccc13)C2` [Indacaterol, indacaterol], for which the “optimal (best) pH for stability” value was 3.5.

Regarding `C[N+]1(C)CCC(OC(=O)C(O)(c2ccccc2)C2CCCC2)C1` (centres unmarked) [glycopyrronium bromide], the “pH at which the active ingredient is stable” value is listed as 2.5-3.5.
